Values quoted from earlier work in patent publication EP0228223A2, “Non-irritating suprofen solution” (Cilag AG, priority 1985, dated 1987).
Entries after “also recorded” stand apart in the source; their conditions may differ.

How the values were obtained:
[1] = preparation swallowed; appears only seconds after swallowing, disappears within minutes

Compound | solubility in organic solvents and base (methanol, ethanol, chloroform, acetone, polyethylene glycol and 1.0 N sodium hydroxide) | solubility in water (water) | irritation in the throat [1]
CC(C(=O)O)c1ccc(C(=O)c2cccs2)cc1 (stereo not shown) [Suprofen, p-(2-thenoyl)hydratropic acid] | freely soluble | poorly soluble; also recorded: very slightly soluble | very characteristic irritation
CC(C(=O)O)c1ccc(C(=O)c2cccs2)cc1 (stereo not shown) [suprofen-sodium] | – | – | irritation effect occurs
